Here are results for 24 molecules from patent publication US10947254B2, “Methods for treating ulcerative colitis using 3-((1R,3s,5S)-3-((7-((5-methyl-1H-pyrazol-3-yl)amino)-1,6-naphthyridin-5-yl)amino)-8-azabicyclo[3.2.1]octan-8-yl)propanenitrile” (priority 2015, dated 2021).

Each structure is given as a SMILES string.

The subject of experiment [1] is oxazolone-induced colitis. The experiment can be described thus: Mouse model of oxazolone-induced colitis. The experiment is classed as in vivo, BALB/C mice. The following applies: mice, PO, 1, 3, and/or 10 mg/kg BID (doses up to 10 mg/kg BID). The method, then:
Assay 7: Mouse Model of Oxazalone-Induced Colitis
Oxazolone-induced colitis is an experimental model that has a histological resemblance to human ulcerative colitis (Heller et al. Immunology, 2002, 17, 629-638). Adult BALB/C mice from Harlan were used in the assay. On day 1, animals were lightly anesthetized with isoflurane and the hairs between the shoulder were carefully removed before oxazolone (4%, 150 μL, 4:1 acetone:olive oil formulation) or vehicle solution was slowly applied for skin sensitization. Seven days after skin sensitization, the mice were fasted overnight, anesthetized with isoflurane inhalation, and a 1 mL syringe equipped with a 3.5-F catheter, filled with oxazolone solution, was inserted carefully about 4 cm into the colon of the mouse. Following insertion, 50 μL of the oxazolone solution (1%, 1:1 ethanol:water formulation) was injected very slowly (over 30 sec using an injection pump) into the colon. The catheter was removed and the mice were held vertically (head down) for 2 min to ensure that the entire oxazolone solution remained inside the colon. Drug treatment (PO, BID or TID) or vehicle was initiated a day prior to the oxazolone intrarectal (IR) challenge. Two-day post oxazolone intrarectal challenge, the Disease Activity Index (DAI) was assessed by treatment-blinded experimenters for each mouse according to the criteria score: stool consistency score (0, normal; 2, loose; 4, diarrhea), gross bleeding score (0, absence; 2, blood tinged; 4, presence), and weight loss score (0, none; 1, 1%-5%; 2, 5%-10%; 3, 10%-20%; 4, more than 20%); DAI=average of (stool consistency score+gross bleeding score+weight loss score).
Selected compounds of the invention were tested in the assay. Efficacy in the model is evidenced by a decrease in DAI score as compared with the score from vehicle treated animals.

For experiment [2], the system named is IL-13 induced STAT6 phosphorylation in BEAS-2B human lung epithelial cells. The following applies: BEAS-2B cells.
Experiment [3] relates to IL-4 induced STAT6 phosphorylation in THP-1 human monocytic cells. The note with it: THP-1 cells.

For the molecule `Cc1cc(Nc2cc3ncccc3c(N[C@@H]3C[C@H]4CC[C@@H](C3)N4C(=O)C(F)F)n2)n[nH]1` [Example 5, 2,2-difluoro-1-((1R,3s,5S)-3-((7-((5-methyl-1H-pyrazol-3-yl)amino)-1,6-naphthyridin-5-yl)amino)-8-azabicyclo[3.2.1]octan-8-yl)ethan-1-one], in experiment [1], the “decrease in DAI score as compared with vehicle treated animals” value (“decrease in DAI score” below) is “statistically significant decrease”.

Consider `Cc1cc(Nc2cc3ncccc3c(NC3CC4CCCC(C3)N4C(=O)C(C)O)n2)n[nH]1` (centres unmarked) [Example 2-16], for which, in experiment [1], the “decrease in DAI score” value is listed as “did not exhibit a statistically significant decrease”.

As to `Cc1cc(Nc2cc3ncccc3c(N[C@@H]3C[C@H]4CC[C@@H](C3)N4S(=O)(=O)c3cccnc3)n2)n[nH]1` [Example 3, N^7-(5-methyl-1H-pyrazol-3-yl)-N^5-((1R,3s,5S)-8-(pyridin-3-ylsulfonyl)-8-azabicyclo[3.2.1]octan-3-yl)-1,6-naphthyridine-5,7-diamine], in experiment [1], the “decrease in DAI score” value was “statistically significant decrease”.

Regarding `Cc1cc(Nc2cc3ncccc3c(N[C@@H]3C[C@H]4CCC[C@@H](C3)N4CC(=O)N(C)C)n2)n[nH]1` [Example 1-38], in experiment [1], the “decrease in DAI score” value is listed as “statistically significant decrease”.

Take `COc1cnc2cc(Nc3cc(C)[nH]n3)nc(N[C@@H]3C[C@H]4CCC[C@@H](C3)N4S(C)(=O)=O)c2c1` [Example 6-29]: the “BEAS2B pIC50” value in experiment [2] is recorded as “A (A represents a pEC50 value ≥7.5 (EC50≤32 nM))”. Besides, the “THP-1 IL4 pIC50” value in experiment [3] is on record as “A (A represents a pEC50 value ≥7.5 (EC50≤32 nM))”.

Consider `COC(=O)c1cnc2cc(Nc3cc(C)[nH]n3)nc(N[C@@H]3C[C@H]4CCC[C@@H](C3)N4CCC#N)c2c1` [Example 6-47], for which, in experiment [2], the “BEAS2B pIC50” value is listed as “A (A represents a pEC50 value ≥7.5 (EC50≤32 nM))”. Besides, the “THP-1 IL4 pIC50” value in experiment [3] is on record as “A (A represents a pEC50 value ≥7.5 (EC50≤32 nM))”.

As for `COc1cnc2cc(Nc3cc(C)[nH]n3)nc(N[C@@H]3C[C@H]4CC[C@@H](C3)N4CCC(F)(F)F)c2c1` [Example 6-15], the “BEAS2B pIC50” value in experiment [2] was “A (A represents a pEC50 value ≥7.5 (EC50≤32 nM))”. Moreover, the “THP-1 IL4 pIC50” value in experiment [3] was “A (A represents a pEC50 value ≥7.5 (EC50≤32 nM))”.

Consider `Cc1cc(Nc2cc3ncccc3c(N[C@@H]3C[C@H]4CCC[C@@H](C3)N4S(=O)(=O)c3cccnc3)n2)n[nH]1` [Example 8, N^7-(5-methyl-1H-pyrazol-3-yl)-N^5-((1R,3s,5S)-9-(pyridin-3-ylsulfonyl)-9-azabicyclo[3.3.1]nonan-3-yl)-1,6-naphthyridine-5,7-diamine], for which the “decrease in DAI score” value in experiment [1] was “statistically significant decrease”.

`Cc1cc(Nc2cc3ncccc3c(N[C@@H]3C[C@H]4CCC[C@@H](C3)N4S(=O)(=O)c3ccccc3)n2)n[nH]1` [Example 9, N^7-(5-methyl-1H-pyrazol-3-yl)-N^5-((1R,3s,5S)-9-(phenylsulfonyl)-9-azabicyclo[3.3.1]nonan-3-yl)-1,6-naphthyridine-5,7-diamine]: the “decrease in DAI score” value in experiment [1] is given as “did not exhibit a statistically significant decrease”.

Regarding `Cc1cc(Nc2nc(N[C@@H]3C[C@H]4CCC[C@@H](C3)N4S(C)(=O)=O)c3cccnc3c2F)n[nH]1` [Example 8-10], in experiment [2], the “BEAS2B pIC50” value was “A (A represents a pEC50 value ≥7.5 (EC50≤32 nM))”. The “THP-1 IL4 pIC50” value in experiment [3] is recorded as “A (A represents a pEC50 value ≥7.5 (EC50≤32 nM))”.

Take `Cc1cc(Nc2cc3ncccc3c(N[C@@H]3C[C@H]4CCC[C@@H](C3)N4S(=O)(=O)N3CCC3)n2)n[nH]1` [Example 4-29]: the “BEAS2B pIC50” value in experiment [2] is given as “A (A represents a pEC50 value ≥7.5 (EC50≤32 nM))”. Moreover, the “THP-1 IL4 pIC50” value in experiment [3] is on record as “A (A represents a pEC50 value ≥7.5 (EC50≤32 nM))”.

As to `Cc1cc(Nc2cc3ncccc3c(N[C@@H]3C[C@H]4CC[C@@H](C3)N4S(=O)(=O)C3CC3)n2)n[nH]1` [Example 4-4], the “decrease in DAI score” value in experiment [1] was “did not exhibit a statistically significant decrease”.

For the molecule `COc1cnc2cc(Nc3cc(C)[nH]n3)nc(N[C@@H]3C[C@H]4CCC[C@@H](C3)N4Cc3ccncc3)c2c1` [Example 6-28], the “BEAS2B pIC50” value in experiment [2] was “A (A represents a pEC50 value ≥7.5 (EC50≤32 nM))”. Besides, in experiment [3], the “THP-1 IL4 pIC50” value is recorded as “A (A represents a pEC50 value ≥7.5 (EC50≤32 nM))”.

Take `COc1ccc2c(N[C@@H]3C[C@H]4CC[C@@H](C3)N4CC(C)C)nc(Nc3cc(C)[nH]n3)cc2n1` [Example 5-4]: in experiment [2], the “BEAS2B pIC50” value is reported as “A (A represents a pEC50 value ≥7.5 (EC50≤32 nM))”. Besides, in experiment [3], the “THP-1 IL4 pIC50” value is listed as “A (A represents a pEC50 value ≥7.5 (EC50≤32 nM))”.

For the molecule `Cc1cc(Nc2cc3ncccc3c(N[C@@H]3C[C@H]4CCC[C@@H](C3)N4CCF)n2)n[nH]1` [Example 1-39], the “BEAS2B pIC50” value in experiment [2] is reported as “A (A represents a pEC50 value ≥7.5 (EC50≤32 nM))”. Further, the “THP-1 IL4 pIC50” value in experiment [3] is “A (A represents a pEC50 value ≥7.5 (EC50≤32 nM))”.

As for `Cc1cc(Nc2cc3ncccc3c(N[C@@H]3C[C@H]4CCC[C@@H](C3)N4CCCF)n2)n[nH]1` [Example 1-40], the “BEAS2B pIC50” value in experiment [2] was “A (A represents a pEC50 value ≥7.5 (EC50≤32 nM))”. In experiment [3], the “THP-1 IL4 pIC50” value is “A (A represents a pEC50 value ≥7.5 (EC50≤32 nM))”.

Take `COc1cnc2cc(Nc3cc(C)[nH]n3)nc(N[C@@H]3C[C@H]4CCC[C@@H](C3)N4CCC#N)c2c1` [Example 6-31]: the “BEAS2B pIC50” value in experiment [2] was “A (A represents a pEC50 value ≥7.5 (EC50≤32 nM))”. In addition, the “THP-1 IL4 pIC50” value in experiment [3] is “A (A represents a pEC50 value ≥7.5 (EC50≤32 nM))”.

Regarding `Cc1cc(Nc2cc3nc(CN4CCOCC4)ccc3c(N[C@@H]3C[C@H]4CCC[C@@H](C3)N4S(=O)(=O)c3cncc(F)c3)n2)n[nH]1` [Example 5-30], the “BEAS2B pIC50” value in experiment [2] is “A (A represents a pEC50 value ≥7.5 (EC50≤32 nM))”. The “THP-1 IL4 pIC50” value in experiment [3] is “A (A represents a pEC50 value ≥7.5 (EC50≤32 nM))”.

Take `COc1cnc2cc(Nc3cc(C)[nH]n3)nc(N[C@@H]3C[C@H]4CC[C@@H](C3)N4CC(C)C)c2c1` [Example 6-14]: the “BEAS2B pIC50” value in experiment [2] is listed as “A (A represents a pEC50 value ≥7.5 (EC50≤32 nM))”. In addition, in experiment [3], the “THP-1 IL4 pIC50” value is “A (A represents a pEC50 value ≥7.5 (EC50≤32 nM))”.

For `Cc1cc(Nc2cc3nc(CN4CCOCC4)ccc3c(N[C@@H]3C[C@H]4CCC[C@@H](C3)N4S(=O)(=O)c3cccnc3)n2)n[nH]1` [Example 5-27], in experiment [2], the “BEAS2B pIC50” value is on record as “A (A represents a pEC50 value ≥7.5 (EC50≤32 nM))”. Besides, in experiment [3], the “THP-1 IL4 pIC50” value is on record as “A (A represents a pEC50 value ≥7.5 (EC50≤32 nM))”.

Take `CCC1(S(=O)(=O)N2[C@@H]3CCC[C@H]2C[C@H](Nc2nc(Nc4cc(C)[nH]n4)cc4ncccc24)C3)CC1` [Example 4-20]: the “BEAS2B pIC50” value in experiment [2] is “A (A represents a pEC50 value ≥7.5 (EC50≤32 nM))”. Moreover, the “THP-1 IL4 pIC50” value in experiment [3] was “A (A represents a pEC50 value ≥7.5 (EC50≤32 nM))”.

On to `Cc1cc(Nc2cc3ncccc3c(N[C@@H]3C[C@H]4CCC[C@@H](C3)N4CC(C)C)n2)n[nH]1` [Example 1-43], for which the “BEAS2B pIC50” value in experiment [2] is “A (A represents a pEC50 value ≥7.5 (EC50≤32 nM))”. Further, the “THP-1 IL4 pIC50” value in experiment [3] was “A (A represents a pEC50 value ≥7.5 (EC50≤32 nM))”.

Turning to `COc1ccc2c(N[C@@H]3C[C@H]4CC[C@@H](C3)N4CCC#N)nc(Nc3cc(C)[nH]n3)cc2n1` [Example 5-8], the “BEAS2B pIC50” value in experiment [2] is listed as “A (A represents a pEC50 value ≥7.5 (EC50≤32 nM))”. In addition, the “THP-1 IL4 pIC50” value in experiment [3] is listed as “A (A represents a pEC50 value ≥7.5 (EC50≤32 nM))”.

For `Cc1cc(Nc2cc3ncccc3c(N[C@@H]3C[C@H]4CCC[C@@H](C3)N4C(=O)c3ccccc3)n2)n[nH]1` [Example 2-25], the “BEAS2B pIC50” value in experiment [2] is listed as “A (A represents a pEC50 value ≥7.5 (EC50≤32 nM))”. Besides, the “THP-1 IL4 pIC50” value in experiment [3] is “A (A represents a pEC50 value ≥7.5 (EC50≤32 nM))”.
